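Five compound concentrations were applied to cells in 96-well plates for 48 hours; endpoints were derived by simple linear interpolation of the resulting dose-response curve. The concentration for 50% growth inhibition is given as GI50.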 The source made the active and inactive calls. Rule as the data show it: active = GI50 up to about 1.1 µM and inactive = higher.
Legend:
Assay in all cases: inhibition of tumour cell growth, NCI panel, 48 h
[1] = test system: K562
[2] = test system: HT-29
[3] = test system: SF-295
[4] = test system: HOP-62
[5] = test system: SK-MEL-5
[6] = test system: NCI-H460
[7] = test system: A549
[8] = test system: EKVX
[9] = test system: UO-31
[10] = test system: LXFL 529
[11] = test system: A498
[12] = test system: HCT-116
[13] = test system: UACC-62
[14] = test system: XF498
[15] = test system: SN12C
[16] = test system: OVCAR-3
[17] = test system: RXF 393

Measured: GI50

CSc1ccc2c(cc1=O)[C@@H](NC(=O)c1cc(O)c(O)c(O)c1)CCc1cc(O)c(O)c(O)c1-2
inactive: [1] 3.8 µM | [2] 24 µM | [3] 23.7 µM | [4] 49.5 µM | [5] 19.8 µM | [6] 20 µM | [7] 27.7 µM | [8] 23.2 µM | [9] 25.9 µM | [10] 18.9 µM | [11] > 100 µM | [12] 16 µM | [13] 19.2 µM | [14] 15.4 µM | [15] 18.1 µM | [16] 31 µM

CC(=O)NC(CCCNC(=O)OCc1ccccc1)C(=O)NCc1ccccc1 (centres undefined)
inactive: [1] > 100 µM | [2] > 100 µM | [3] > 100 µM | [4] > 100 µM | [5] > 100 µM | [6] > 100 µM | [7] > 100 µM | [8] > 100 µM | [9] > 100 µM | [10] > 100 µM | [11] > 100 µM | [17] > 100 µM | [12] > 100 µM | [13] > 100 µM | [14] > 100 µM | [15] > 100 µM | [16] > 100 µM

C=C1CC2C(=O)N(c3ccccc3)C(=O)C2CC1n1[nH]c(=O)n(Cc2ccccc2)c1=O (centres undefined)
inactive: [1] > 100 µM | [2] > 100 µM | [3] > 100 µM | [4] > 100 µM | [5] > 100 µM | [6] > 100 µM | [7] > 100 µM | [8] > 100 µM | [9] > 100 µM | [10] > 100 µM | [11] > 100 µM | [17] > 100 µM | [12] > 100 µM | [13] > 100 µM | [14] > 100 µM | [15] > 100 µM | [16] > 100 µM

CCCCCCc1cc2c(C)c(C)c(=O)oc2cc1OCCCOc1cc2oc(=O)c(C)c(C)c2cc1CCCCCC
inactive: [1] > 100 µM | [2] > 100 µM | [3] > 100 µM | [4] > 100 µM | [5] > 100 µM | [6] > 100 µM | [7] > 100 µM | [8] > 100 µM | [9] > 100 µM | [10] > 100 µM | [11] > 100 µM | [17] 43.4 µM | [12] > 100 µM | [13] > 100 µM | [14] > 100 µM | [16] > 100 µM

CNC(=O)N(CCCC(NC(C)=O)C(=O)NCc1ccccc1)Cc1ccccc1 (centres undefined)
inactive: [1] > 100 µM | [2] > 100 µM | [3] > 100 µM | [4] > 100 µM | [5] > 100 µM | [6] > 100 µM | [7] > 100 µM | [8] > 100 µM | [9] > 100 µM | [10] > 100 µM | [11] > 100 µM | [17] > 100 µM | [12] > 100 µM | [13] > 100 µM | [14] > 100 µM | [15] > 100 µM | [16] > 100 µM

COc1ccccc1NC(=O)C(=O)C1C(=O)Nc2ccccc2[S+]1[O-] (centres undefined)
inactive: [1] > 100 µM | [2] > 100 µM | [3] > 100 µM | [4] > 100 µM | [5] > 100 µM | [6] > 100 µM | [7] > 100 µM | [8] > 100 µM | [9] > 100 µM | [10] > 100 µM | [11] > 100 µM | [17] > 100 µM | [12] > 100 µM | [13] > 100 µM | [14] > 100 µM | [15] > 100 µM | [16] > 100 µM

O=c1/c(=C/c2ccco2)sc2nc3ccccc3n12
inactive: [1] > 10 µM | [2] > 10 µM | [3] > 10 µM | [4] > 100 µM | [5] > 10 µM | [6] > 10 µM | [7] > 10 µM | [8] 59.2 µM | [9] > 10 µM | [10] > 10 µM | [11] > 10 µM | [17] 63.5 µM | [12] > 10 µM | [13] > 10 µM | [14] > 10 µM | [15] > 10 µM | [16] > 10 µM

O=C1OCCC1C(O)C1c2ccccc2-c2ccccc21 (centres undefined)
inactive: [1] > 100 µM | [2] > 100 µM | [3] > 100 µM | [4] > 100 µM | [6] > 100 µM | [7] > 100 µM | [8] > 100 µM | [9] > 100 µM | [10] > 100 µM | [11] > 100 µM | [12] > 100 µM | [13] > 100 µM | [14] 17.8 µM | [15] > 100 µM | [16] > 100 µM

Cc1cc(=O)oc2c1cc(OCC(=O)OCCN1CCCCC1)c1occ(C)c12
inactive: [1] > 100 µM | [2] > 100 µM | [3] > 100 µM | [5] > 100 µM | [6] > 100 µM | [7] > 100 µM | [8] > 100 µM | [9] > 100 µM | [10] > 100 µM | [11] > 100 µM | [17] > 100 µM | [12] > 100 µM | [13] > 100 µM | [14] > 100 µM | [15] > 100 µM | [16] > 100 µM

N#CC1CCCCC1NC1(C#N)CCCCC1 (centres undefined)
inactive: [1] > 100 µM | [2] > 100 µM | [3] > 100 µM | [4] > 100 µM | [5] > 100 µM | [7] > 100 µM | [8] > 100 µM | [9] > 100 µM | [10] > 100 µM | [11] > 100 µM | [17] > 100 µM | [13] > 100 µM | [14] > 100 µM | [15] > 100 µM | [16] > 100 µM

CC1(C)OC(C[C@]2(C#N)C[C@H](CCl)OC(C)(C)O2)C[C@@H](C[C@]2(C#N)C[C@H](CCl)OC(C)(C)O2)O1 (some centres undefined)
inactive: [1] > 100 µM | [2] > 100 µM | [3] > 100 µM | [4] > 100 µM | [5] 51.6 µM | [6] > 100 µM | [7] > 100 µM | [8] > 100 µM | [10] > 100 µM | [11] > 100 µM | [12] 60.4 µM | [13] > 100 µM | [14] > 100 µM | [15] > 100 µM | [16] > 100 µM

O=C(O)C12C3C4C1C1C2C3C41I (centres undefined)
inactive: [1] > 100 µM | [2] > 100 µM | [3] > 100 µM | [4] > 100 µM | [5] > 100 µM | [6] > 100 µM | [7] > 100 µM | [8] > 100 µM | [9] > 100 µM | [10] > 100 µM | [11] > 100 µM | [12] > 100 µM | [13] > 100 µM | [14] > 100 µM | [15] > 100 µM | [16] > 100 µM

— ChEMBL document CHEMBL1201862, “PubChem BioAssay data set” (2004)
